Experiments:
[1] = target: human Adenosine A3 receptor (Homo sapiens (Human), UniProt P0DMS8); assay: Adenosine receptor TR-FRET binding assay (A3); settings: inhibition of binding of 100 nM CA200645, CHO cell membranes
Experimental: (§1) Biological Example 1—Adenosine Receptor Time-Resolved Fluorescence Resonance Energy Transfer (TRFRET) Binding Assay
(§2) All FRET binding experiments were conducted at room temperature in white 384-well plates, in assay binding buffer containing 1×LabMed (Cisbio, France), 100 μg/mL saponin, 1% DMSO and 0.02% pluronic acid. Binding of the fluorescently labelled Adenosine receptor antagonist XAC (CA200645, FRET acceptor) to terbium-labelled A1, A2a, A2b and A3 adenosine receptors (FRET donors) was detected by time-resolved FRET due to the close proximity of the donor and acceptor in a binding event. To investigate the ability of unlabelled test compounds to bind to Adenosine A1, A2a, A2b and A3 receptors, dose response curves were constructed that determined the ability of a range of concentrations to inhibit the binding of 30 nM CA200645 to the A2b receptor and 100 nM CA200645 to the A1, A2a, and A3 receptor.
(§3) Serial dilution (1:3 dilutions) of test compounds in neat DMSO and transfer of a 400 nL sample of test compound into the assay plate was carried out using the Mosquito (TTP Labtech, UK). The compound samples were incubated for 2 hours at room temperature with a fixed concentration of CA200645 defined for each receptor (see above) and CHO cell membranes containing the human Adenosine A1 (0.5 μg/well), A2a (0.3 μg/well), A2b (1 μg/well) or A3 (1 μg/well) receptor in 40 μL of assay buffer. Total and non-specific binding of CA200645 was determined in the absence and presence of 10 μM XAC, respectively. Following 2 hours incubation, the level of CA200645 binding was detected on a Pherastar FSX (BMG Labtech, Germany) using standard TR-FRET settings. The terbium donor was excited with three laser flashes at a wavelength of 337 nm, and donor and acceptor emission was detected at 620 nm and 665 nm wavelengths, respectively. FRET ratios were obtained by multiplying the acceptor/donor ratio value by 10,000. Specific binding was determined by subtracting the non-specific binding FRET ratio from the total binding FRET ratio. Compound IC50 curves were analysed using GraphPad Prism 7.0 (GraphPad, USA) and Ki affinity values were determined from the obtained IC50 values using the method of Cheng and Prusoff.

[2] = target: human Adenosine A1 receptor (Homo sapiens (Human), UniProt P30542); assay: Adenosine receptor TR-FRET binding assay (A1); settings: inhibition of binding of 100 nM CA200645, CHO cell membranes
Sequence of human Adenosine A1 receptor (P30542 whole entry): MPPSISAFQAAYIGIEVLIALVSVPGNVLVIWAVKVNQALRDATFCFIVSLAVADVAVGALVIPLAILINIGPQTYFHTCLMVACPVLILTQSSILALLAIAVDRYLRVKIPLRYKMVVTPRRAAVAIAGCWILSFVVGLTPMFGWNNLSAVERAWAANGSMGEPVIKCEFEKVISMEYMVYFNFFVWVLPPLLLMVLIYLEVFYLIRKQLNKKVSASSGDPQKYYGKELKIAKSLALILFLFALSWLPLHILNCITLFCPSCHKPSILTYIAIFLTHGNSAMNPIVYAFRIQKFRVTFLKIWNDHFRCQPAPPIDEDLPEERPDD
Experimental: as §1, §2, §3

[3] = target: human Adenosine A2a receptor (Homo sapiens (Human), UniProt P29274); assay: Adenosine receptor TR-FRET binding assay (A2a); settings: inhibition of binding of 100 nM CA200645, CHO cell membranes
Sequence of human Adenosine A2a receptor (P29274 whole entry): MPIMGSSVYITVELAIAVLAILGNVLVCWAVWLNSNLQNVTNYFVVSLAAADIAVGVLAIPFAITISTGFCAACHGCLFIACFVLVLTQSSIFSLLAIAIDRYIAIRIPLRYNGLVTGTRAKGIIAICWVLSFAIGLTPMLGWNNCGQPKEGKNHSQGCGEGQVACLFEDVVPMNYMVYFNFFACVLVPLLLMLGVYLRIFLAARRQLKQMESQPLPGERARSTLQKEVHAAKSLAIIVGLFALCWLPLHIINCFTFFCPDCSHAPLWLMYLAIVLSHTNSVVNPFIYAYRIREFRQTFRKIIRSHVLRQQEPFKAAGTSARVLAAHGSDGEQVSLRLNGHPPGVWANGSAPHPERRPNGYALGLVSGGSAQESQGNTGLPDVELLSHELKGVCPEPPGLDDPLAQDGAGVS
Experimental: as §1, §2, §3

[4] = target: human Adenosine A2b receptor (Homo sapiens (Human), UniProt P29275); assay: Adenosine receptor TR-FRET binding assay (A2b); settings: TR-FRET, inhibition of binding of 30 nM CA200645, CHO cell membranes
Sequence of human Adenosine A2b receptor (P29275 whole entry): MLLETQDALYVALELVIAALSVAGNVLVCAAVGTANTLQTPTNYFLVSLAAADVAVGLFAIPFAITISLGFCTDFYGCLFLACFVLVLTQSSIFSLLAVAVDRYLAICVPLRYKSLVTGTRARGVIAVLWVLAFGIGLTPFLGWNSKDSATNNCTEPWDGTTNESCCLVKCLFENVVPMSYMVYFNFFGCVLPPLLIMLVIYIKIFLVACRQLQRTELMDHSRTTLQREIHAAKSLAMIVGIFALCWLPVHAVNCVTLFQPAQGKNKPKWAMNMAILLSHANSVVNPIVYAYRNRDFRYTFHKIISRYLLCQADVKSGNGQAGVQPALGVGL
Experimental: as §1, §2, §3

Sequence of human Adenosine A3 receptor (P0DMS8 whole entry): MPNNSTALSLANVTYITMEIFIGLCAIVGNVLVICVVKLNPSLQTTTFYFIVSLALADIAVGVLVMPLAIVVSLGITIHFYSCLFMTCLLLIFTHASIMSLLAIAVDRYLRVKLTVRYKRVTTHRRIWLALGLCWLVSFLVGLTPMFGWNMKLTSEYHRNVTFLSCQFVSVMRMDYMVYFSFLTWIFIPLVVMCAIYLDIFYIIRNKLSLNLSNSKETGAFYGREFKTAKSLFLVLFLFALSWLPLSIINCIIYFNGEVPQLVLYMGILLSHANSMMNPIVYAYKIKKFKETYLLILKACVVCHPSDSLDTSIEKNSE

Row | SMILES | Ki [1] | Ki [2] | Ki [3] | Ki [4]
1 | Cc1cc(-c2sc(NC(=O)N3CCN[C@@H](C(C)(C)O)C3)nc2-c2cccc(C#N)c2)cc(Cl)n1 [Example 3.10] | 144 nM | 135 nM | 8.17 nM | 12.2 nM
2 | COCC1(C#N)CCN(C(=O)Nc2nc(-c3cccc(C#N)c3)c(-c3cc(C)nc(C)c3)s2)CC1 [Example 4.6, 4-Cyano-N-[4-(3-cyanophenyl)-5-(2,6-dimethyl-4-pyridyl)thiazol-2-yl]-4-(methoxymethyl)piperidine-1-carboxamide] | 170 nM | 41 nM | 0.18 nM | 1.2 nM
3 | Cc1cc(-c2sc(NC(=O)N3CCO[C@@H](CO)C3)nc2-c2cccc(C#N)c2)cc(C)n1 [Example 4.16, (2R)-N-[4-(3-Cyanophenyl)-5-(2,6-dimethyl-4-pyridyl)thiazol-2-yl]-2-(hydroxymethyl)morpholine-4-carboxamide] | 265 nM | 41 nM | 0.9 nM | 2.2 nM
4 | Cc1cc(-c2sc(NC(=O)N3CCO[C@H](CO)C3)nc2-c2cccc(C#N)c2)cc(C)n1 [Example 4.21, (2S)-N-[4-(3-Cyanophenyl)-5-(2,6-dimethyl-4-pyridyl)thiazol-2-yl]-2-(hydroxymethyl)morpholine-4-carboxamide] | 265 nM | 10 nM | 0.3 nM | 1 nM
5 | Cc1cc(-c2sc(NC(=O)N3CCS(=O)(=O)CC3)nc2-c2cccc(C#N)c2)cc(C)n1 [Example 4.27, N-[4-(3-Cyanophenyl)-5-(2,6-dimethyl-4-pyridyl)thiazol-2-yl]-1,1-dioxo-1,4-thiazinane-4-carboxamide] | 423 nM | 6 nM | 0.1 nM | 0.8 nM
6 | Cc1cc(-c2sc(NC(=O)N3CCN(CCO)C(=O)C3)nc2-c2cccc(C#N)c2)cc(C)n1 [Example 4.31, N-[4-(3-Cyanophenyl)-5-(2,6-dimethyl-4-pyridyl)thiazol-2-yl]-4-(2-hydroxyethyl)-3-oxo-piperazine-1-carboxamide] | 425 nM | 210 nM | 3.75 nM | 4.7 nM
7 | Cc1cc(-c2sc(NC(=O)N3CC(C(C)(C)O)C3)nc2-c2cccc(C#N)c2)cc(C)n1 [Example 4.33, N-[4-(3-Cyanophenyl)-5-(2,6-dimethyl-4-pyridyl)thiazol-2-yl]-3-(1-hydroxy-1-methyl-ethyl)azetidine-1-carboxamide] | 410 nM | 62 nM | 1.91 nM | 5.9 nM
8 | Cc1cc(-c2sc(NC(=O)N3CCN[C@@H](C(=O)O)C3)nc2-c2cccc(C#N)c2)cc(Cl)n1 [Example 5, (2R)-4-[[5-(2-Chloro-6-methyl-4-pyridyl)-4-(3-cyanophenyl)thiazol-2-yl]carbamoyl]piperazine-2-carboxylic acid] | 696 nM | 601 nM | 5.75 nM | 5.5 nM
9 | COC(=O)[C@H]1CN(C(=O)Nc2nc(-c3cccc(C#N)c3)c(-c3cc(C)nc(Cl)c3)s2)CCN1 [Example 5.1, Methyl (2R)-4-[[5-(2-chloro-6-methyl-4-pyridyl)-4-(3-cyanophenyl)thiazol-2-yl]carbamoyl]piperazine-2-carboxylate] | 229 nM | 45 nM | 0.62 nM | 1.6 nM
10 | Cc1cc(-c2sc(NC(=O)N3CCN[C@@H](CO)C3)nc2-c2cccc(C#N)c2)cc(Cl)n1 [Example 5.3, (3R)-N-[5-(2-Chloro-6-methyl-4-pyridyl)-4-(3-cyanophenyl)thiazol-2-yl]-3-(hydroxymethyl)piperazine-1-carboxamide] | 98 nM | 90 nM | 2.31 nM | 2.1 nM
11 | Cc1cc(-c2sc(NC(=O)N3CCN[C@@H](C(N)=O)C3)nc2-c2cccc(C#N)c2)cc(Cl)n1 [Example 5.7, (3R)-N1-[5-(2-Chloro-6-methyl-4-pyridyl)-4-(3-cyanophenyl)thiazol-2-yl]piperazine-1,3-dicarboxamide] | 247 nM | 48 nM | 2.9 nM | 1.8 nM
12 | Cc1cc(-c2sc(NC(=O)N3CC[C@H](C(N)=O)C3)nc2-c2cccc(C#N)c2)cc(C)n1 [Example 6.3, (3S)-N1-[4-(3-Cyanophenyl)-5-(2,6-dimethyl-4-pyridyl)thiazol-2-yl]pyrrolidine-1,3-dicarboxamide] | 125 nM | 32 nM | 0.87 nM | 1.5 nM
13 | Cc1cc(-c2sc(NC(=O)N3CC[C@@H](C(N)=O)C3)nc2-c2cccc(C#N)c2)cc(C)n1 [Example 6.8, (3R)-N1-[4-(3-Cyanophenyl)-5-(2,6-dimethyl-4-pyridyl)thiazol-2-yl]pyrrolidine-1,3-dicarboxamide] | 312 nM | 23 nM | 0.72 nM | 1.1 nM
14 | Cc1cc(-c2sc(NC(=O)N3CC(=O)N4CCCCC4C3)nc2-c2cccc(C#N)c2)cc(C)n1 (stereo not shown) [Example 6.15, N-[4-(3-Cyanophenyl)-5-(2,6-dimethyl-4-pyridyl)thiazol-2-yl]-4-oxo-3,6,7,8,9,9a-hexahydro-1H-pyrido[1,2-a]pyrazine-2-carboxamide] | 259 nM | 263 nM | 2.02 nM | 5.9 nM
15 | Cc1cc(-c2sc(NC(=O)N3CCN4CCNC(=O)C4C3)nc2-c2cccc(C#N)c2)cc(C)n1 (stereo not shown) [Example 6.16, N-[4-(3-Cyanophenyl)-5-(2,6-dimethyl-4-pyridyl)thiazol-2-yl]-9-oxo-3,4,6,7,8,9a-hexahydro-1H-pyrazino[1,2-a]pyrazine-2-carboxamide] | 565 nM | 422 nM | 3.99 nM | 17.6 nM
16 | Cc1cc(-c2sc(NC(=O)N3CC[S+]([O-])CC3)nc2-c2cccc(C#N)c2)cc(C(F)F)n1 [Example 6.19, N-[4-(3-Cyanophenyl)-5-[2-(difluoromethyl)-6-methyl-4-pyridyl]thiazol-2-yl]-1-oxo-1,4-thiazinane-4-carboxamide] | 130 nM | 20 nM | 0.61 nM | 1.1 nM
17 | Cc1cc(-c2sc(NC(=O)N3CCC(n4cccn4)CC3)nc2-c2cccc(C#N)c2)cc(C)n1 [Example 6.21, N-[4-(3-Cyanophenyl)-5-(2,6-dimethyl-4-pyridyl)thiazol-2-yl]-4-pyrazol-1-yl-piperidine-1-carboxamide] | 96 nM | 6 nM | 0.86 nM | 1.3 nM
18 | Cc1cc(-c2sc(NC(=O)N3CCC(c4ncon4)CC3)nc2-c2cccc(C#N)c2)cc(C)n1 [Example 6.22, N-[4-(3-Cyanophenyl)-5-(2,6-dimethyl-4-pyridyl)thiazol-2-yl]-4-(1,2,4-oxadiazol-3-yl)piperidine-1-carboxamide] | 107 nM | 4 nM | 0.38 nM | 1.8 nM
19 | Cc1cc(-c2sc(NC(=O)N3CCN4C(=O)NC(=O)C4C3)nc2-c2cccc(C#N)c2)cc(C)n1 (stereo not shown) [Example 6.23, N-[4-(3-Cyanophenyl)-5-(2,6-dimethyl-4-pyridyl)thiazol-2-yl]-1,3-dioxo-5,6,8,8a-tetrahydroimidazo[1,5-a]pyrazine-7-carboxamide] | 394 nM | 92 nM | 2.99 nM | 6.5 nM
20 | Cc1cc(-c2sc(NC(=O)N3CCC(c4ncc[nH]4)CC3)nc2-c2cccc(C#N)c2)cc(C)n1 [Example 6.25, N-[4-(3-Cyanophenyl)-5-(2,6-dimethyl-4-pyridyl)thiazol-2-yl]-4-(1H-imidazol-2-yl)piperidine-1-carboxamide] | 94 nM | 2 nM | 1.73 nM | 1.1 nM
21 | Cc1cc(-c2sc(NC(=O)N3CCn4ccnc4C3)nc2-c2cccc(C#N)c2)cc(C)n1 [Example 6.27, N-[4-(3-Cyanophenyl)-5-(2,6-dimethyl-4-pyridyl)thiazol-2-yl]-6,8-dihydro-5H-imidazo[1,2-a]pyrazine-7-carboxamide] | 151 nM | 45 nM | 1.01 nM | 1.4 nM
22 | CNC(=O)C1CCN(C(=O)Nc2nc(-c3cccc(C#N)c3)c(-c3cc(C)nc(C)c3)s2)CC1 [Example 6.28, N1-[4-(3-Cyanophenyl)-5-(2,6-dimethyl-4-pyridyl)thiazol-2-yl]-N4-methyl-piperidine-1,4-dicarboxamide] | 226 nM | 32 nM | 4.84 nM | 3.2 nM
